Laboratory results from paper PMC11984924, “Dipeptidic Phosphonates: Potent Inhibitors of Pseudomonas aeruginosa Elastase B Showing Efficacy in a Murine Keratitis Model” (Advanced Science, 2025).
In brackets after ≈: the same amount, converted by molar mass.

Legend:
[1] = tested on: P. aeruginosa strain PA54; experiment: MIC against strain PA54; format: cell-based; conditions: Pseudomonas aeruginosa, read-out: minimum inhibitory concentration (MIC)
Procedure: The analysis of fold change and copy numbers was conducted through Microsoft Excel, and the data were graphically represented using GraphPad Prism 9.
Table S17: Primers and probes applied in this study (designs were carried out using Geneious Prime bioinformatics […]
Gene Forward primer Reverse Primer Probe Description […]
lasB GAACA CAG CCAA aeruginosa […]
GACTTC CCTG CCGA sigma factor RpoS […]
rho AAC GTTG TCATCGG termination factor
(§1) Animals: The animal experiments were approved by Saarland University’s Animal Welfare Committee (Application number: 17/2021) and conducted in accordance with German and European recommendations and guidelines for the ethical use of animals. The laboratory animals were all C57BL/6N female eight to eleven months old mice. Keeping in specific pathogen-free conditions was provided. Unlimited access to water and show was secured.
(§2) Temperature was closely maintained around 22 °C and relative air humidity around 50%. Light and darkness alternated at twelve-hour intervals. All laboratory animals were purchased from Charles River GmbH, Sulzfeld, Germany.
P. aeruginosa: The P. aeruginosa strain PA54 was employed to induce an experimental bacterial keratitis in the aforementioned C57BL/6N mice. The strain PA54 was isolated from human infections and collected at Saarland University Medical Center’s Institute for Medical Microbiology and Hygienics (IMMH) in 2009. […]

[2] = tested on: P. aeruginosa strain PA54 keratitis; experiment: Murine Pseudomonas keratitis model; format: in vivo, mouse
Procedure: Based on our previous findings on target engagement in a murine pneumonia model in combination with a standard‐of‐care antibiotic,^[ [30] ^] we applied the dipeptide (R)‐30 alone and in combination with the commonly used antibiotic meropenem.^[ [9] ^] The keratitis model was carried out using aged female C57BL/6 mice, as previously published.^[ [37] ^] For infection, 5*10^7 colony forming units (CFUs) of PA54 were topically administered on denuded, mechanically harmed corneas. Treatments with meropenem, (R)‐30, or meropenem in combination with (R)‐30 were performed every 8 h for 72 h (first treatment at 6 h post infection). Each of the in total nine 5 µL‐doses contained 1 mg/mL (R)‐30 and/or 0.5 mg mL^−1 meropenem. Sham‐treated mice received 5 µL‐doses of the vehicle (0.9% saline and 1% DMSO) at the time points indicated above, and uninfected eyes received no treatment. […]
as §1, §2
P. aeruginosa: The P. aeruginosa strain PA54 was employed to induce an experimental bacterial keratitis in the aforementioned C57BL/6N mice. The strain PA54 was isolated from human infections and collected at Saarland University Medical Center’s Institute for Medical Microbiology and Hygienics (IMMH) in 2009. According to Magiorakos et al., PA54 can be classified as multidrug-resistant due to its lacking sensibility to the anti-pseudomonal cephalosporins ceftazidime and cefepime, the anti-pseudomonal fluoroquinolones ciprofloxacin and levofloxacin, the […] fosfomycin, and the aminoglycoside gentamicin.[18] The minimum inhibitory concentration (MIC) of the reserve antibiotic meropenem (meropenem trihydrate, Sigma) was 1 µg/mL (sensitivity limit = 2 µg/mL). The exoU- and exoT-positivity of the PA54 strain, foregrounds its keratitogenic potential.
Inoculum: The P. aeruginosa strain PA54 is routinely grown overnight on blood agar (TrypticaseTM Soy Agar, 5% sheep blood, BD, Heidelberg, Germany) at 37 °C. To obtain a stationary phase cell inoculum, a freshly grown colony was inoculated in tryptic soy broth (TSB; BD, Heidelberg, Germany) and cultured at 37 °C and 150 rounds per minute (rpm) for 16 h.
Then, 2 mL were centrifuged at 13,200 rpm at rt for 2 min, whereupon cells were resuspended in spent medium to an OD600 of 10 (∼1×1010 CFU/mL). Short storage on ice followed, before the infection procedure started.
Infection Procedure: Anesthesia and infection were performed as previously published. Briefly, fentanyl (Hameln Pharma Plus GmbH, Hameln, Germany), midazolam hydrochloride (Midazolam-Hameln, 5 mg/mL, Hameln pharma GmbH, Germany) and medetomidine hydrochloride (Domitor, Orion Corporation, Espoo, Finland) were dissolved in 0.9% NaCl (NaCl 0.9%, Ecotainer 500 mL, B. Braun, Melsungen, Germany), dosed at 0.05 mg/kg, 5 mg/kg and 0.5 mg/kg body weight, respectively, and applied by intraperitoneal injection. Analgesia (Carprofen, 5 mg/kg body weight, Zoetis Deutschland GmbH, Berlin, Germany) was ap plied subcutaneously. Lacrimation was stopped with 10 µL of a 0.6% acetylcysteine solution (Pharmacy of Saarland University Hospitals, Homburg, Germany). Local analgesia (0.5% proxymetacaine hydrochloride, Proparakain -POS Augentropfen, Ursapharm Arzneimitt el GmbH, Saarbrücken, Germany) was eye-dropped and removed after 60 seconds. The blunt […]

With `C[C@@H](O)[C@H]1C(=O)N2C(C(=O)O)=C(S[C@@H]3CN[C@H](C(=O)N(C)C)C3)[C@H](C)[C@H]12` [meropenem, reference compound] the MIC [1] was 1 µg/mL (≈ 2.61 µM), the “IL‐1β levels in eye homogenate” value ([2]; day 3 post infection, compared to sham treatment / uninfected eyes) was “almost on the level of this cytokine seen in uninfected eyes” and the “KC levels in eye homogenate” value ([2]; day 3 post infection, compared to uninfected eyes) was “significantly higher amounts of this chemokine”. The “reduction of bacterial load in the eye (median)” value ([2]; day 3 post infection, whole-eye homogenates) was 64 fold and the “median clinical keratitis score” value ([2]; day three post infection, topical every 8 h for 72 h, 1 mg/mL (R)-30 and/or 0.5 mg/mL meropenem) was 3.
